Measurements from patent US11225505B2, “Antimicrobial polymyxin derivative compounds” (MONASH UNIVERSITY, priority 2015, dated 2022).
Values after ≈ are worked out from the molar mass of the structure shown. Where a SMILES comes first, the peptide text is derived from it. Bridges are numbered along the chain shown (N, C = ends). [ ]: non-standard residue; d: D form. The star is where a group is joined. X1 = O=C(c1ncc(Cl)cc1Cl)*; Dab = NCC[C@H](N)C(=O)O; Abu = CC[C@H](N)C(=O)O; Dap = NC[C@H](N)C(=O)O

Key:
Assay type in all cases: cell-based
[1] = test system: Acinetobacter baumannii ATCC 17978; details: ATCC 17978
Procedure, shortened: (§1)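 The read-out is the MIC, obtained by CLSI broth microdilution (M100-S24) in cation-adjusted Mueller-Hinton broth. The compounds were lipopeptide TFA salts, and polymyxin B sulphate served as control.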

[2] = test system: Enterobacter cloacae FADDI-EC001; details: FADDI-EC001
Procedure, shortened: (§2)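 Gram-negative bacteria susceptible to polymyxin were exposed to lipopeptide trifluoroacetates in CAMHB, and growth inhibition was read as the MIC by the CLSI microdilution protocol.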

[3] = test system: Enterobacter cloacae FADDI-EC006; details: FADDI-EC006
Procedure, shortened: as §1

[4] = test system: Klebsiella pneumoniae Kp BM1; details: Kp BM1
Procedure, shortened: as §2

[5] = test system: Pseudomonas aeruginosa ATCC 27853; details: ATCC 27853
Procedure, shortened: as §1

[6] = test system: Pseudomonas aeruginosa FADDI-PA01; details: FADDI-
Procedure, shortened: as §1

[7] = test system: Pseudomonas aeruginosa FADDI-PA022; details: FADDI-PA022
Procedure, shortened: as §1

SMILES: CC[C@@H]1NC(=O)[C@@H](CC(C)C)NC(=O)[C@H](CCN)NC(=O)[C@@H](NC(=O)[C@H](CN)NC(=O)[C@@H](NC(=O)[C@H](CCN)NC(=O)c2ncc(Cl)cc2Cl)[C@@H](C)O)CCNC(=O)[C@H]([C@@H](C)O)NC(=O)[C@H](CCN)NC(=O)[C@H](CCN)NC1=O [Compound 1] (X1-[Dab]T[Dap][Dab][Dab][dL][Abu][Dab][Dab]T; lactam 4-C)
- Minimum inhibitory concentration [1]: 2 µg/mL (≈ 1.72 µM)
- Minimum inhibitory concentration [2]: <0.125 µg/mL
- Minimum inhibitory concentration [3]: 0.5 µg/mL (≈ 0.431 µM)
- Minimum inhibitory concentration [4]: 0.25 µg/mL (≈ 0.215 µM)
- Minimum inhibitory concentration [5]: 0.5 µg/mL (≈ 0.431 µM)
- Minimum inhibitory concentration [6]: 0.5 µg/mL (≈ 0.431 µM)
- Minimum inhibitory concentration [7]: 1 µg/mL (≈ 0.861 µM)
